Blank lines part the entries; values can stand above or below the compound they belong to.
How the values were obtained:
[1] = In vitro penetration across human skin in modified Franz cells
Description: In each case, the vehicle was a pH 7.4 phosphate buffer (0.2 M).
Penetration rates of HPPs and their parent drugs through human skin were measured in vitro by modified Franz cells. A Franz cell had two chambers, the top sample chamber and the bottom receiving chamber. The human skin tissue (360-400 μm thick) that separated the top and the receiving chambers was isolated from the anterior or posterior thigh areas.
A compound tested (0.2 mL, 5% in 0.2 M phosphate buffer, pH 7.4) were added to the sample chamber of a Franz cell. The receiving chamber contains 2 ml of 2% bovine serum albumin in saline which was stirred at 600 rpm. The amount of the tested compound penetrating the skin was determined by high-performance liquid chromatography (HPLC) method.

[2] = Irritative effect or discomfort on skin of mice after topical application; format: in vivo; settings: 0.1 ml of 0.5% in pH 7.4 phosphate buffer to back of nude mice twice per day, 1 week
Description: Irritative effect or discomfort in the skin of mice of HPPs of retinoids or retinoid-related compounds was evaluated during a period of 1 week after the topical application of 0.1 ml of 0.5% of the respective test drug in pH 7.4 phosphate buffer (0.2 M) to the back of nude mice twice per day.

[3] = Conversion of HPPs to parent drugs in human plasma (half life); format: in vitro ADME; settings: 37° C., HPLC
Description: HPPs of retinoids or retinoid-related compounds converted to the parent retinoids or retinoid-related compounds quickly in good yield in human plasma.
A HPP of retinoids or retinoid-related compound (10 mg) was dissolved in 0.1 ml of 0.2M pH 7.4 phosphate buffer. 1 ml of human plasma, preheated to 37° C., was added into the mixture. The mixture was kept in a water bath at 37° C., and at every 2 min intervals 0.2 ml of samples were withdrawn and added to 0.4 ml of methanol to precipitate the plasma protein. The samples were centrifuged for 5 min and analyzed by HPLC.

[4] = system: human acute promyelocytic leukemia(APL) line; test: Survival of mice implanted with human acute promyelocytic leukemia line; format: in vivo; settings: for None Disease Rate at day 160: animals out of 7; for Life Elongation Rate: control = 100; for Survival Period: n=7
From the text: For evaluation of antitumor activity, a human acute promyelocytic leukemia(APL) line derived from a patient with acute promyelocytic leukemia (APL) was implanted into mice.

Solubility in water = format: physicochemical
Description: (§1) 30 g (0.1 mol) of sodium 9-cis-retinoate was dissolved in 100 ml of acetonitrile. 26.1 g (0.1 mol) of 2-Bromo-N,N-diethylethylamine·HBr was added into the reaction mixture. The mixture was stirred for overnight at RT. The solvents were evaporated off. 200 ml of ethanol was added into the residue. The solid was removed by filtration. The solution was evaporated to dryness. 100 ml of ethyl acetate was added into the reaction mixture. Hexane (100 ml) was added. The solid product was collected by filtration. After drying, it yielded 36 g of the desired product (75%). Hygroscopic product; solubility in water: 30 mg/ml; elementary analysis: C26H42BrNO2; MW: 480.52; calculated % C: 64.99; H: 8.81; Br: 16.63; N: 2.91; O: 6.66; found % C: 65.03; H: 8.80; Br: 16.60; N: 2.89; O: 6.68.
as §1, with “13-cis-retinoate” for “9-cis-retinoate”, “Hygroscopic product; solubility in water: 30 mg/ml; elementary analysis: C26H42BrNO2; MW: 480.52; calculated % C: 64.99; H: 8.81; Br: 16.63; N: 2.91; O: 6.66; found % C: 65.03; H: 8.80; Br: 16.60; N: 2.89; O: 6.68.” left out

[5] = system: human breast cancer cells (BCAP-37); test: Antitumor activity against human breast cancer cells implanted into nude mice; format: in vivo, nude mice (BALB); settings: 50 μl of 1% in 0.2M pH 7.4 phosphate buffer, topically to implanted area twice per day from day 3; control 100% incidence
From the text: For evaluation of antitumor activity of these prodrugs, human breast cancer cells (BCAP-37) were implanted into nude mice (BALB). […] The average weight of the treated group was 25 grams and that of the control group was 21 grams.

[6] = system: Lesions similar to psoriasis induced by Malassezia; test: Malassezia-induced lesions similar to psoriasis on rabbit skin; format: in vivo, Chinese white rabbits; settings: 200 μl of 0.05% aqueous solution, topical twice per day, 3 hours after Malassezia; control lesions became worse
From the text: Heavy suspensions of Malassezia [Rosenberg, E. W., et al., Mycopathologia, 72, 147-154 (1980)] were applied to shaved skin on the backs of Chinese white rabbits (n=4×10) twice (at 7 am and 7 pm respectively) per day for 2 weeks. […] The control group was only applied with Malassezia.

[7] = 10 mg/kg per day, transdermally
[8] = parent compound, 5% suspension in pH 7.4 phosphate buffer (0.2 M), isolated human skin, Franz cells, n=5

In vitro Penetration Rate (apparent flux) of HPPs ([1]; pH 7.4): 1.21 mg/cm^2/h
Half life of HPPs in plasma [3]: 20 ± 1 min
Compound: CC1=C(/C=C/C(C)=C/C=C/C(C)=C/COC(=O)CN(C)C)C(C)(C)CCC1.Cl [retinyl N,N-dimethyl-2-aminoacetate·HCl]
signs of irritative effect or discomfort [2]: None of any signs of irritative effect or discomfort

Compound: Br.CC1=C(/C=C/C(C)=C\C=C\C(C)=C\C(=O)OCC2CCCN2)C(C)(C)CCC1 (stereo not drawn) [9-cis-retinoic acid 2-pyrrolidinemethyl ester·HBr]
None Disease Rate at day 160 ([4]; 5 mg/kg per day, transdermally): 3/7
Life Elongation Rate ([4]; 5 mg/kg per day, transdermally): 230%
Survival Period ([4]; 5 mg/kg per day, transdermally): 72.5 ± 4.6 days
None Disease Rate at day 160 [4, 7]: 5/7
Life Elongation Rate [4, 7]: 385%
Survival Period [4, 7]: 121.2 ± 4.8 days

Compound: CC1=C(/C=C/C(C)=C/C=C/C(C)=C/C(=O)O)C(C)(C)CCC1 [all-trans-retinoic acid (tretinoin), all-trans-retinoic acid, reference compound]
In vitro Penetration Rate (apparent flux) of Parent compounds [1, 8]: 0.005 mg/cm^2/h
None Disease Rate at day 160 ([4]; 5 mg/kg per day, orally): 0/7
Life Elongation Rate ([4]; 5 mg/kg per day, orally): 158%
Survival Period ([4]; 5 mg/kg per day, orally): 49.7 ± 3.6 days
None Disease Rate at day 160 ([4]; 10 mg/kg per day, orally): 2/7
Life Elongation Rate ([4]; 10 mg/kg per day, orally): 249%
Survival Period ([4]; 10 mg/kg per day, orally): 78.5 ± 3.7 days

Compound: C=C(c1ccc(C(=O)O)cc1)c1cc2c(cc1C)C(C)(C)CCC2(C)C [bexaroten (Targretin ®), reference compound]
apparent flux value of parent drug ([1]; lowest detectable flux 1 μg/cm^2/h, considered not detectable): 1 μg/cm^2/h
In vitro Penetration Rate (apparent flux) of Parent compounds [1, 8]: 0.001 mg/cm^2/h
None Disease Rate at day 160 ([4]; 5 mg/kg per day, orally): 3/7
Life Elongation Rate ([4]; 5 mg/kg per day, orally): 205%
Survival Period ([4]; 5 mg/kg per day, orally): 64.5 ± 3.7 days
None Disease Rate at day 160 ([4]; 10 mg/kg per day, orally): 5/7
Life Elongation Rate ([4]; 10 mg/kg per day, orally): 302%
Survival Period ([4]; 10 mg/kg per day, orally): 95.2 ± 3.9 days

solubility in water (Solubility in water): 30 mg/mL
Half life of HPPs in plasma [3]: 12 ± 1 min
Compound: Br.CCN(CC)CCOC(=O)/C=C(C)/C=C/C=C(C)\C=C\C1=C(C)CCCC1(C)C [N,N-diethylaminoethyl 9-cis-retinoate·HBr]
signs of irritative effect or discomfort [2]: None of any signs of irritative effect or discomfort
tumor seen after 20 days [5]: none of tumor was seen
lesions 10 days after application of Malassezia and HPP [6]: resolved

Compound: Br.CC1=C(/C=C/C(C)=C/C=C/C(C)=C/C(=O)OCCN2CCCCC2)C(C)(C)CCC1
None Disease Rate at day 160 ([4]; 5 mg/kg per day, transdermally): 4/7
Life Elongation Rate ([4]; 5 mg/kg per day, transdermally): 278%
Survival Period ([4]; 5 mg/kg per day, transdermally): 87.8 ± 3.4 days
None Disease Rate at day 160 [4, 7]: 5/7
Life Elongation Rate [4, 7]: 429%
Survival Period [4, 7]: 135.2 ± 5.9 days
lesions 10 days after application of Malassezia and HPP [6]: resolved

In vitro Penetration Rate (apparent flux) of HPPs ([1]; pH 7.4): 0.35 mg/cm^2/h
Half life of HPPs in plasma [3]: 15 ± 1 min
Compound: C=C(c1ccc(C(=O)OCCN(CC)CC)cc1)c1cc2c(cc1C)C(C)(C)CCC2(C)C.Cl [N,N-diethylaminoethyl 4-[1-(5,6,7,8-tetrahydro-3,5,5,8,8-pentamethyl-2-naphthalenyl)ethenyl]benzoate·HCl]
signs of irritative effect or discomfort [2]: None of any signs of irritative effect or discomfort
tumor seen after 20 days [5]: none of tumor was seen

In vitro Penetration Rate (apparent flux) of HPPs ([1]; pH 7.4): 1.25 mg/cm^2/h
Half life of HPPs in plasma [3]: 11 ± 1 min
Compound: Br.CCN(CC)CCOC(=O)/C=C(C)/C=C/C=C(C)/C=C/C1=C(C)CCCC1(C)C [N,N-diethylaminoethyl all-trans-retinoate·HBr]
signs of irritative effect or discomfort [2]: None of any signs of irritative effect or discomfort

Compound: CC1=C(/C=C/C(C)=C\C=C\C(C)=C\C(=O)O)C(C)(C)CCC1 [9-cis-retinoic acid (alitretinoin), 9-cis-retinoic acid, reference compound]
In vitro Penetration Rate (apparent flux) of Parent compounds [1, 8]: 0.005 mg/cm^2/h
None Disease Rate at day 160 ([4]; 5 mg/kg per day, orally): 1/7
Life Elongation Rate ([4]; 5 mg/kg per day, orally): 144%
Survival Period ([4]; 5 mg/kg per day, orally): 45.5 ± 2.3 days
None Disease Rate at day 160 ([4]; 10 mg/kg per day, orally): 3/7
Life Elongation Rate ([4]; 10 mg/kg per day, orally): 207%
Survival Period ([4]; 10 mg/kg per day, orally): 65.2 ± 4.1 days

In vitro Penetration Rate (apparent flux) of Parent compounds ([1]; human, 5 %, pH 7.4): 0.005 mg/cm^2/h
Compound: CC1=C(/C=C/C(C)=C/C=C/C(C)=C/CO)C(C)(C)CCC1 [vitamin A (retinol), retinol]

Compound: C=C(c1ccc(C(=O)OCN2CCCC2)cc1)c1cc2c(cc1C)C(C)(C)CCC2(C)C.Cl
None Disease Rate at day 160 ([4]; 5 mg/kg per day, transdermally): 5/7
Life Elongation Rate ([4]; 5 mg/kg per day, transdermally): 306%
Survival Period ([4]; 5 mg/kg per day, transdermally): 96.5 ± 4.4 days
None Disease Rate at day 160 [4, 7]: 6/7
Life Elongation Rate [4, 7]: 529%
Survival Period [4, 7]: 166.5 ± 5.4 days

In vitro Penetration Rate (apparent flux) of HPPs ([1]; HPP, 5% solution in pH 7.4 phosphate buffer (0.2 M), isolated human skin, Franz cells, n=5): 0.67 mg/cm^2/h
Compound: Br.CC1=C(/C=C/C(C)=C\C=C\C(C)=C\C(=O)OCCN2CCCCC2)C(C)(C)CCC1 [9-cis-retinoic acid 1-piperidineethyl ester·HBr]

solubility in water (Solubility in water): 30 mg/mL
In vitro Penetration Rate (apparent flux) of HPPs ([1]; pH 7.4): 0.85 mg/cm^2/h
Half life of HPPs in plasma [3]: 13 ± 1 min
Compound: Br.CCN(CC)CCOC(=O)\C=C(C)/C=C/C=C(C)/C=C/C1=C(C)CCCC1(C)C [N,N-diethylaminoethyl 13-cis-retinoate·HBr]
signs of irritative effect or discomfort [2]: None of any signs of irritative effect or discomfort

In vitro Penetration Rate (apparent flux) of Parent compounds [1, 8]: 0.005 mg/cm^2/h
Compound: CC1=C(/C=C/C(C)=C/C=C/C(C)=C\C(=O)O)C(C)(C)CCC1 [13-cis-retinoic acid (isotretinoin), 13-cis-retinoic acid]
